The term IC50 denotes the midpoint of a concentration-inhibition curve.

Numbered stars: 1 amine (or outer) side, 2 acyl side, 3 side chain; on linkers, the order of the positions; unused ones are H or OH. Bridge positions count the residues as written; N and C are the ends. Peptide text beside a SMILES is read from it. X1 = O=C(C=NOCCCCCCOc1cc(C[*:2])cc(C[*:3])c1)[*:1]

One assay deals with T1, rh-integrin α4β7/LPAM-1 (Homo sapiens, UniProt P13612+P26010).
T1 sequence (P13612 34-977 limits assumed): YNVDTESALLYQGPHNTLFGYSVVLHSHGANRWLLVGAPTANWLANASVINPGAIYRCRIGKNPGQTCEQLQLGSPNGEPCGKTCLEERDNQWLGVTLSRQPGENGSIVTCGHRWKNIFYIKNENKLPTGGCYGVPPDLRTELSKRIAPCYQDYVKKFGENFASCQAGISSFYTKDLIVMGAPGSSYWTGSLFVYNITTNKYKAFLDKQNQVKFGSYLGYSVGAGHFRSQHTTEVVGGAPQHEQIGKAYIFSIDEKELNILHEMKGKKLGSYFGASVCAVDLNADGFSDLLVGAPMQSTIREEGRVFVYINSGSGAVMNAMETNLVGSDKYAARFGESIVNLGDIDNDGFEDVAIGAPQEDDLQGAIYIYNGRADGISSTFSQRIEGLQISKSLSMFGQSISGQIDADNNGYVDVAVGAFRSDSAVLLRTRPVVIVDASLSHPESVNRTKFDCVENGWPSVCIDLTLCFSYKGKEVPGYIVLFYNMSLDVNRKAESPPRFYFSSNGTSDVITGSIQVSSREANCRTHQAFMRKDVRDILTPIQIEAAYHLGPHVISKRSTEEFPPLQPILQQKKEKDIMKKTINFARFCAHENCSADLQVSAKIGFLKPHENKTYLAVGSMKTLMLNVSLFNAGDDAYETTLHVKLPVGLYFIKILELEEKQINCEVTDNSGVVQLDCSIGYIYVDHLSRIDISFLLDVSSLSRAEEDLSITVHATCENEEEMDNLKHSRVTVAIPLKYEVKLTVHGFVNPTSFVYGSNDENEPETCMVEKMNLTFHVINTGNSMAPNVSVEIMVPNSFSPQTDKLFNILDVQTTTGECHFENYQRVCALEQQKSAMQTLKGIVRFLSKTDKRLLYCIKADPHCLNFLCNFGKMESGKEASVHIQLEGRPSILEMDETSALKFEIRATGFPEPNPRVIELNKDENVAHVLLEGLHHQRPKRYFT
T1 sequence (P26010 20-723 limits assumed): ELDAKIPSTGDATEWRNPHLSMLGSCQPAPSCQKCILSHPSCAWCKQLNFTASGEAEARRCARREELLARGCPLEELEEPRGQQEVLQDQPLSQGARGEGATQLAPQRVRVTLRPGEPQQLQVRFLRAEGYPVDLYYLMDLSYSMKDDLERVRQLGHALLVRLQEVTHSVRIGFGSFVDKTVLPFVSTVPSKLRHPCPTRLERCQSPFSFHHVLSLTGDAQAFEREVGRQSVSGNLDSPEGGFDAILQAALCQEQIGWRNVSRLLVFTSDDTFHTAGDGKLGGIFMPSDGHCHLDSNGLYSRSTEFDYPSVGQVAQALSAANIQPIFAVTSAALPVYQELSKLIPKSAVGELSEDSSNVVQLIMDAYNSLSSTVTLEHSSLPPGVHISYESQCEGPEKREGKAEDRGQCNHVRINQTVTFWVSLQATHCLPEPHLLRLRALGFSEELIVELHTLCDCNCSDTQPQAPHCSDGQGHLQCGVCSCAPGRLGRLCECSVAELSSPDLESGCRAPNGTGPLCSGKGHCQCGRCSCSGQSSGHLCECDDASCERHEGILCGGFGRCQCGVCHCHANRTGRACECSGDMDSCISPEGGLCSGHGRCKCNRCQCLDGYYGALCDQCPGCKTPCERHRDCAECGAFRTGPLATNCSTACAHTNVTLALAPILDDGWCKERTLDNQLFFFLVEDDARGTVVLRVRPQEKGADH
As to the kind of experiment: α4β7-MadCAM Competition ELISA (Example 4). It is filed as binding. The conditions noted are these: Table 3 Representative compounds; inhibition of MAdCAM binding to coated α4β7; read-out: IC50. On the procedure: After washing with wash buffer, 200 μL assay buffer was added to each well and incubated for one hour at 28° C. After another wash with wash buffer, 100 μL of a MAdCAM and peptide mixture in assay buffer was added to each well and incubated for one hour at 28° C., followed by washing with wash buffer.
`CC(C)C[C@@H]1NC(=O)[C@H](CO)NC(=O)[C@H](CCCNC(=N)N)NC(=O)[C@@H]2CSCC(=O)N[C@@H](CCCNC(=N)N)C(=O)N[C@@H](CSSC[C@@H](C(=O)N[C@@H](Cc3c[nH]c4ccccc34)C(=O)N[C@@H](CCC(N)=O)C(N)=O)NC(=O)[C@H](C(C)C)NC(=O)[C@@H](CC(=O)O)NC1=O)C(=O)N[C@@H](CO)C(=O)N[C@@H](CC(=O)O)C(=O)N[C@@H]([C@@H](C)O)C(=O)N[C@@H](CC(C)C)C(=O)N2` (racemic) [compound 87]: the IC50 is 71.3 µM. Same read-out and setting: the value for `CCCC[C@@H]1NC(=O)[C@@H]2CCCN2C(=O)[C@@H]2CSCc3cc(cc(c3)OCCCCCCC(=O)NCC(=O)N[C@@H](CCCCN)C(=O)N2)CSC[C@@H](C(N)=O)NC(=O)[C@H](CCCCN)NC(=O)[C@H](C(C)C)NC(=O)[C@H](Cc2c[nH]c3ccccc23)NC(=O)[C@H]([C@@H](C)CC)NC(=O)[C@H](CC(=O)O)NC1=O` (stereo in doubt) [compound 21, TSLC7- GKCP{Nle} DIWVKC] was 0.45 µM; that for `CC[C@H](C)[C@@H]1NC(=O)[C@H](CC(=O)O)NC(=O)[C@H](CCSC)NC(=O)[C@@H]2CCCN2C(=O)C(NC(=O)[C@H](CCCNC(=N)N)NC(=O)[C@H](CO)NC(C)=O)CSSC[C@@H](C(=O)N[C@@H](CCCCNC(=O)COCC(=O)NCCCC[C@H](NC(=O)[C@@H]2CSSC[C@H](NC(=O)[C@H](CCCNC(=N)N)NC(=O)[C@H](CO)NC(C)=O)C(=O)N3CCC[C@H]3C(=O)N[C@@H](CCSC)C(=O)N[C@@H](CC(=O)O)C(=O)N[C@@H]([C@@H](C)CC)C(=O)N[C@@H](C)C(=O)NCC(=O)N[C@@H](CCC(=O)O)C(=O)N2)C(N)=O)C(N)=O)NC(=O)[C@H](CCC(=O)O)NC(=O)CNC(=O)[C@H](C)NC1=O` (stereo in doubt) [compound 32] was 0.729 µM. Same read-out and setting: the value for `CCCC[C@@H]1NC(=O)[C@@H]2CCCN2C(=O)[C@@H]2CSCc3cc(cc(c3)OCCCCCCC(=O)NCC(=O)N[C@@H](C)C(=O)N2)CSC[C@@H](C(N)=O)NC(=O)[C@H](CCC(=O)O)NC(=O)[C@H](CCC(N)=O)NC(=O)[C@H](Cc2c[nH]c3ccccc23)NC(=O)[C@H](C(C)C)NC(=O)[C@H](CC(=O)O)NC1=O` (stereo in doubt) [compound 33, TSLC7- GACP{Nle} DVWQEC] was 0.74 µM; that for `CC(C)C[C@@H]1NC(=O)[C@@H]2CCCN2C(=O)[C@@H]2CSCc3cc(cc(c3)OCCCCCCO/N=C/C(=O)N[C@@H](C)C(=O)N2)CSC[C@@H](C(N)=O)NC(=O)[C@H](CCC(=O)O)NC(=O)[C@H](Cc2ccc(O)cc2)NC(=O)[C@@H]2CCCN2C(=O)C([C@@H](C)O)NC(=O)[C@H](CC(=O)O)NC1=O` (stereo in doubt) [compound 43, TSL6- SACPLDTPYEC] was 1.45 µM. The same measure, in the same setting: the value for `CC(C)C[C@@H]1NC(=O)[C@H](C)NC(=O)[C@@H]2CSCc3cc(cc(c3)OCCCCCCO/N=C/C(=O)N[C@@H](CCCCN)C(=O)N2)CSC[C@@H](C(N)=O)NC(=O)[C@H](CCC(=O)O)NC(=O)[C@H](Cc2ccc(O)cc2)NC(=O)[C@@H]2CCCN2C(=O)[C@H]([C@@H](C)O)NC(=O)[C@H](CC(=O)O)NC1=O` (stereo in doubt) [compound 53, TSL6- SKCALDTPYEC] was 2.7 µM.

Still in this assay, the particulars now being: competition ELISA, 4 μg/mL α4β7 coated, MAdCAM and peptide mixture, 28° C.; read-out: IC50.
For the compound `CC(C)C[C@@H]1NC(=O)[C@H](Cc2ccccc2)NC(=O)[C@@H]2CSCc3cc(cc(c3)OCCCCCCON=CC(=O)N[C@@H]([C@@H](C)O)C(=O)N2)CSC[C@@H](C(=O)O)NC(=O)[C@H](CC(N)=O)NC(=O)[C@H](CCCCN)NC(=O)[C@H](C(C)C)NC(=O)[C@H](CC(=O)O)NC1=O` [SEQ ID NO: 10] (TCFLDVKNC-OH; linker N-2-9 via X1), the 50% inhibitory concentration (IC50) is 311 µM.

Consider `N=C(N)NCCC[C@@H]1NC(=O)CNC(=O)[C@H](Cc2ccc(O)cc2)NC(=O)[C@H](Cc2c[nH]c3ccccc23)NC(=O)[C@H](Cc2c[nH]cn2)NC(=O)[C@@H]2CSCc3cc(cc(c3)OCCCCCCON=CC(=O)N[C@@H](CCC(N)=O)C(=O)N2)CSC[C@@H](C(=O)O)NC(=O)[C@H](CO)NC1=O` [SEQ ID NO: 19] (QCHWYGRSC-OH; linker N-2-9 via X1), for which the IC50 was > 500 µM. The same measure, in the same setting: the value for `C[C@@H]1NC(=O)C=NOCCCCCCOc2cc3cc(c2)CSC[C@H](NC1=O)C(=O)N[C@@H](Cc1ccc(O)cc1)C(=O)N1CCC[C@H]1C(=O)N[C@@H](CC(=O)O)C(=O)N[C@@H]([C@@H](C)O)C(=O)N[C@@H](Cc1ccc(O)cc1)C(=O)N[C@@H](Cc1c[nH]cn1)C(=O)N[C@H](C(=O)O)CSC3` [SEQ ID NO: 39] (ACYPDTYHC-OH; linker N-2-9 via X1) was 111 µM; that for `CC[C@H](C)[C@@H]1NC(=O)[C@H](C)NC(=O)[C@H](CCSC)NC(=O)[C@@H]2CCCN2C(=O)[C@@H]2CSCc3cc(cc(c3)OCCCCCCON=CC(=O)N[C@@H](CCC(N)=O)C(=O)N2)CSC[C@@H](C(=O)O)NC(=O)[C@H]([C@@H](C)O)NC(=O)[C@@H]2CCCN2C1=O` [SEQ ID NO: 49] (QCPMAIPTC-OH; linker N-2-9 via X1) was > 500 µM; that for `CC(C)C[C@@H]1NC(=O)[C@@H]2CCCN2C(=O)[C@@H]2CSCc3cc(cc(c3)OCCCCCCON=CC(=O)N[C@@H](CCCCN)C(=O)N2)CSC[C@@H](C(=O)O)NC(=O)[C@H](CO)NC(=O)[C@@H]2CCCN2C(=O)[C@H](C(C)C)NC(=O)[C@H](C)NC1=O` [SEQ ID NO: 56] (KCPLAVPSC-OH; linker N-2-9 via X1) was 55.9 µM. The same measure, in the same setting: the value for `CC(C)C[C@@H]1NC(=O)[C@@H]2CCCN2C(=O)[C@@H]2CSCc3cc(cc(c3)OCCCCCCON=CC(=O)N[C@@H](CCCCN)C(=O)N2)CSC[C@@H](C(=O)O)NC(=O)[C@H](CO)NC(=O)[C@@H]2CCCN2C(=O)[C@H](C)NC(=O)[C@H](CC(=O)O)NC1=O` [SEQ ID NO: 57] (KCPLDAPSC-OH; linker N-2-9 via X1) was 1.74 µM; that for `C[C@@H]1NC(=O)[C@@H]2CCCN2C(=O)[C@@H]2CSCc3cc(cc(c3)OCCCCCCON=CC(=O)N[C@@H](CCCCN)C(=O)N2)CSC[C@@H](C(=O)O)NC(=O)[C@H](CCC(=O)O)NC(=O)[C@H](Cc2ccc(O)cc2)NC(=O)[C@@H]2CCCN2C(=O)[C@H]([C@@H](C)O)NC(=O)[C@H](CC(=O)O)NC1=O` [SEQ ID NO: 71] (KCPADTPYEC-OH; linker N-2-10 via X1) was > 500 µM; that for `CC(C)C[C@@H]1NC(=O)[C@@H]2CCCN2C(=O)[C@@H]2CSCc3cc(cc(c3)OCCCCCCON=CC(=O)N[C@@H](CCCCN)C(=O)N2)CSC[C@@H](C(=O)O)NC(=O)[C@H](CCC(=O)O)NC(=O)[C@H](Cc2ccc(O)cc2)NC(=O)[C@@H]2CCCN2C(=O)[C@H]([C@@H](C)O)NC(=O)[C@H](C)NC1=O` [SEQ ID NO: 72] (KCPLATPYEC-OH; linker N-2-10 via X1) was > 500 µM. Still for that read-out and setting: for `CC[C@H](C)[C@@H]1NC(=O)[C@H](CC(=O)O)NC(=O)[C@H](CC(C)C)NC(=O)[C@H](CCCCN)NC(=O)[C@@H]2CSCc3cc(cc(c3)OCCCCCCON=CC(=O)N[C@@H](Cc3c[nH]cn3)C(=O)N2)CSC[C@@H](C(=O)O)NC(=O)[C@H](C(C)C)NC(=O)[C@H](Cc2c[nH]c3ccccc23)NC1=O` [SEQ ID NO: 73] (HCKLDIWVC-OH; linker N-2-9 via X1) the value was > 500 µM.

For the origin of these results see patent US20230145835A1, “Modulators of Alpha-4-beta-7 Integrin and MAdCAM” (48HD Biopharma Inc., priority 2021, published 2023).
